Legend:
[1] = tested on: blackgrass; experiment: Test Example 5: herbicidal effect by foliage application, plastic box (Table 20, symbol J); type: in vivo, blackgrass (Alopecurus myosuroides); settings: foliage application, 320 g/ha, evaluated 3 weeks after application
Procedure, shortened: (§1)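 Plants sown in sterilized diluvial soil and grown 14 days in a greenhouse at 25° C to 30° C, then sprayed on the foliage with the compound's emulsion diluted in water to a predetermined herbicide amount. Injury to weeds and crops scored three weeks after application on a visual rating scale.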

[2] = tested on: wild oat; experiment: Test Example 4: herbicidal effect by soil treatment (Table 19, symbol I); type: in vivo, wild oat (Avena fatua); settings: amount of applied herbicide 320 g/ha
Procedure, shortened: (§2)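 Three weeks of greenhouse growth at 25° C. to 30° C. followed a uniform surface spray of water-diluted emulsion at a predetermined herbicide amount. Seeds had been sown beforehand under about 1.5 cm of sterilized diluvial soil. Grading followed criteria set out in an earlier test.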

[3] = tested on: wild oat; experiment: Test Example 5: herbicidal effect by foliage application, plastic box (Table 20, symbol I); type: in vivo, wild oat (Avena fatua); settings: foliage application, 320 g/ha, evaluated 3 weeks after application
Procedure, shortened: as §1

[4] = tested on: southern crabgrass; experiment: Test Example 4: herbicidal effect by soil treatment (Table 19, symbol F); type: in vivo, southern crabgrass (Digitaria ciliaris); settings: amount of applied herbicide 320 g/ha
Procedure, shortened: as §2

[5] = tested on: late watergrass; experiment: Test Example 1: herbicidal activity, application before weed generation under submerged conditions (Table 16, symbol A); type: in vivo, late watergrass (Echinochloa oryzicola); settings: amount of applied herbicide 320 g/ha
Procedure, shortened: (§3)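 Alluvial soil was flooded to 4 cm depth, weed seeds were sown mixed and 2.5-leaf rice seedlings were transplanted. On sowing day, the compound's emulsion, diluted in water to a set dose, was applied to the water surface. Plants grew at 25–30 °C and were scored 0–5 after three weeks.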

[6] = tested on: chickweed; experiment: Test Example 4: herbicidal effect by soil treatment (Table 19, symbol P); type: in vivo, common chickweed (Stellaria media); settings: amount of applied herbicide 320 g/ha
Procedure, shortened: as §2

[7] = tested on: blackgrass; experiment: Test Example 4: herbicidal effect by soil treatment (Table 19, symbol J); type: in vivo, blackgrass (Alopecurus myosuroides); settings: amount of applied herbicide 320 g/ha
Procedure, shortened: as §2

[8] = tested on: false cleavers; experiment: Test Example 4: herbicidal effect by soil treatment (Table 19, symbol Q); type: in vivo, false cleavers (Galium spurium); settings: amount of applied herbicide 320 g/ha
Procedure, shortened: as §2

[9] = tested on: barnyard grass; experiment: Test Example 3: herbicidal effect by foliage application, Wagner pot (Table 18, symbol H); type: in vivo, barnyard grass (Echinochloa crus-galli); settings: amount of applied herbicide 320 g/ha
Procedure, shortened: (§4)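 Plants were sown in alluvial soil held under 0.1–0.5 cm standing water and grown 14 days in a greenhouse at 25–30 °C. An emulsifiable formulation, water-diluted to the set dose, was then sprayed onto the foliage, and effects were scored three weeks later using previously defined criteria.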

[10] = tested on: redroot pigweed; experiment: Test Example 5: herbicidal effect by foliage application, plastic box (Table 20, symbol N); type: in vivo, redroot pigweed (Amaranthus retroflexus); settings: foliage application, 320 g/ha, evaluated 3 weeks after application
Procedure, shortened: as §1

[11] = tested on: rice flat sedge; experiment: Test Example 3: herbicidal effect by foliage application, Wagner pot (Table 18, symbol E); type: in vivo, rice flat sedge (Cyperus iria); settings: amount of applied herbicide 320 g/ha
Procedure, shortened: as §4

[12] = tested on: persian speedwell; experiment: Test Example 5: herbicidal effect by foliage application, plastic box (Table 20, symbol R); type: in vivo, Persian speedwell (Veronica persica); settings: foliage application, 320 g/ha, evaluated 3 weeks after application
Procedure, shortened: as §1

[13] = tested on: barnyard grass; experiment: Test Example 5: herbicidal effect by foliage application, plastic box (Table 20, symbol H); type: in vivo, barnyard grass (Echinochloa crus-galli); settings: foliage application, 320 g/ha, evaluated 3 weeks after application
Procedure, shortened: as §1

[14] = tested on: green foxtail; experiment: Test Example 4: herbicidal effect by soil treatment (Table 19, symbol G); type: in vivo, green foxtail (Setaria viridis); settings: amount of applied herbicide 320 g/ha
Procedure, shortened: as §2

[15] = tested on: lambsquarters; experiment: Test Example 5: herbicidal effect by foliage application, plastic box (Table 20, symbol O); type: in vivo, lambsquarters (Chenopodium album); settings: foliage application, 320 g/ha, evaluated 3 weeks after application
Procedure, shortened: as §1

[16] = tested on: southern crabgrass; experiment: Test Example 5: herbicidal effect by foliage application, plastic box (Table 20, symbol F); type: in vivo, southern crabgrass (Digitaria ciliaris); settings: foliage application, 320 g/ha, evaluated 3 weeks after application
Procedure, shortened: as §1

[17] = tested on: chickweed; experiment: Test Example 5: herbicidal effect by foliage application, plastic box (Table 20, symbol P); type: in vivo, common chickweed (Stellaria media); settings: foliage application, 320 g/ha, evaluated 3 weeks after application
Procedure, shortened: as §1

[18] = tested on: oval-leafed pondweed; experiment: Test Example 1: herbicidal activity, application before weed generation under submerged conditions (Table 16, symbol C); type: in vivo, oval-leafed pondweed (Monochoria vaginalis); settings: amount of applied herbicide 320 g/ha
Procedure, shortened: as §3

[19] = tested on: lambsquarters; experiment: Test Example 4: herbicidal effect by soil treatment (Table 19, symbol O); type: in vivo, lambsquarters (Chenopodium album); settings: amount of applied herbicide 320 g/ha
Procedure, shortened: as §2

[20] = tested on: Italian ryegrass; experiment: Test Example 5: herbicidal effect by foliage application, plastic box (Table 20, symbol K); type: in vivo, Italian ryegrass (Lolium multiflorum); settings: foliage application, 320 g/ha, evaluated 3 weeks after application
Procedure, shortened: as §1

[21] = tested on: persian speedwell; experiment: Test Example 4: herbicidal effect by soil treatment (Table 19, symbol R); type: in vivo, Persian speedwell (Veronica persica); settings: amount of applied herbicide 320 g/ha
Procedure, shortened: as §2

[22] = tested on: false cleavers; experiment: Test Example 5: herbicidal effect by foliage application, plastic box (Table 20, symbol Q); type: in vivo, false cleavers (Galium spurium); settings: foliage application, 320 g/ha, evaluated 3 weeks after application
Procedure, shortened: as §1

[23] = tested on: Italian ryegrass; experiment: Test Example 4: herbicidal effect by soil treatment (Table 19, symbol K); type: in vivo, Italian ryegrass (Lolium multiflorum); settings: amount of applied herbicide 320 g/ha
Procedure, shortened: as §2

[24] = tested on: barnyard grass; experiment: Test Example 4: herbicidal effect by soil treatment (Table 19, symbol H); type: in vivo, barnyard grass (Echinochloa crus-galli); settings: amount of applied herbicide 320 g/ha
Procedure, shortened: as §2

[25] = tested on: redroot pigweed; experiment: Test Example 4: herbicidal effect by soil treatment (Table 19, symbol N); type: in vivo, redroot pigweed (Amaranthus retroflexus); settings: amount of applied herbicide 320 g/ha
Procedure, shortened: as §2

[26] = tested on: Japanese bulrush; experiment: Test Example 1: herbicidal activity, application before weed generation under submerged conditions (Table 16, symbol B); type: in vivo, Japanese bulrush (Schoenoplectus juncoides); settings: amount of applied herbicide 320 g/ha
Procedure, shortened: as §3

[27] = tested on: velvetleaf; experiment: Test Example 5: herbicidal effect by foliage application, plastic box (Table 20, symbol M); type: in vivo, velvetleaf (Abutilon theophrasti); settings: foliage application, 320 g/ha, evaluated 3 weeks after application
Procedure, shortened: as §1

[28] = tested on: velvetleaf; experiment: Test Example 4: herbicidal effect by soil treatment (Table 19, symbol M); type: in vivo, velvetleaf (Abutilon theophrasti); settings: amount of applied herbicide 320 g/ha
Procedure, shortened: as §2

[29] = tested on: windgrass; experiment: Test Example 4: herbicidal effect by soil treatment (Table 19, symbol L); type: in vivo, windgrass (Apera spica-venti); settings: amount of applied herbicide 320 g/ha
Procedure, shortened: as §2

[30] = tested on: Chinese sprangletop; experiment: Test Example 3: herbicidal effect by foliage application, Wagner pot (Table 18, symbol D); type: in vivo, chinese sprangletop (Leptochloa chinensis); settings: amount of applied herbicide 320 g/ha
Procedure, shortened: as §4

[31] = tested on: windgrass; experiment: Test Example 5: herbicidal effect by foliage application, plastic box (Table 20, symbol L); type: in vivo, windgrass (Apera spica-venti); settings: foliage application, 320 g/ha, evaluated 3 weeks after application
Procedure, shortened: as §1

[32] = tested on: green foxtail; experiment: Test Example 5: herbicidal effect by foliage application, plastic box (Table 20, symbol G); type: in vivo, green foxtail (Setaria viridis); settings: foliage application, 320 g/ha, evaluated 3 weeks after application
Procedure, shortened: as §1

With `COc1ccc2c(-c3c(O)c(C)nn(C)c3=O)c(-c3ccccc3OC)oc2c1` [10-001] the “J (blackgrass) herbicidal effect grade” value [1] was 0 (Herbicidal rate of 5% or less (almost no effect)), the “I: wild oat, herbicidal effect grade” value [2] was 0 (Herbicidal rate of 5% or less (almost no effect)) and the “I (wild oat) herbicidal effect grade” value [3] was 0 (Herbicidal rate of 5% or less (almost no effect)). The “F: southern crabgrass, herbicidal effect grade” value [4] was 0 (Herbicidal rate of 5% or less (almost no effect)), the “Herbicidal effect, A: late watergrass” value [5] was 0 (Herbicidal rate of 5% or less (almost no effect)) and the “P: chickweed, herbicidal effect grade” value [6] was 0 (Herbicidal rate of 5% or less (almost no effect)). The “J: blackgrass, herbicidal effect grade” value [7] was 0 (Herbicidal rate of 5% or less (almost no effect)), the “Q: false cleavers, herbicidal effect grade” value [8] was 0 (Herbicidal rate of 5% or less (almost no effect)) and the “Herbicidal effect on H (barnyard grass), foliage application” value [9] was 3 (Herbicidal rate of 40% or more and less than 70%). For the same compound, the “N (redroot pigweed) herbicidal effect grade” value [10] was 3 (Herbicidal rate of 40% or more and less than 70%), the “Herbicidal effect on E (rice flat sedge), foliage application” value [11] was 2 (Herbicidal rate of 20% or more and less than 40%) and the “R (persian speedwell) herbicidal effect grade” value [12] was 5 (Herbicidal rate of 90% or more (almost completely withered)). The “H (barnyard grass) herbicidal effect grade” value [13] was 3 (Herbicidal rate of 40% or more and less than 70%), the “G: green foxtail, herbicidal effect grade” value [14] was 0 (Herbicidal rate of 5% or less (almost no effect)) and the “O (lambsquarters) herbicidal effect grade” value [15] was 4 (Herbicidal rate of 70% or more and less than 90%). For the same compound, the “F (southern crabgrass) herbicidal effect grade” value [16] was 2 (Herbicidal rate of 20% or more and less than 40%), the “P (chickweed) herbicidal effect grade” value [17] was 5 (Herbicidal rate of 90% or more (almost completely withered)) and the “Herbicidal effect, C: oval-leafed pondweed” value [18] was 3 (Herbicidal rate of 40% or more and less than 70%). For the same compound, the “O: lambsquarters, herbicidal effect grade” value [19] was 0 (Herbicidal rate of 5% or less (almost no effect)), the “K (Italian ryegrass) herbicidal effect grade” value [20] was 0 (Herbicidal rate of 5% or less (almost no effect)) and the “R: persian speedwell, herbicidal effect grade” value [21] was 5 (Herbicidal rate of 90% or more (almost completely withered)). For the same compound, the “Q (false cleavers) herbicidal effect grade” value [22] was 4 (Herbicidal rate of 70% or more and less than 90%), the “K: Italian ryegrass, herbicidal effect grade” value [23] was 0 (Herbicidal rate of 5% or less (almost no effect)) and the “H: barnyard grass, herbicidal effect grade” value [24] was 0 (Herbicidal rate of 5% or less (almost no effect)). The “N: redroot pigweed, herbicidal effect grade” value [25] was 0 (Herbicidal rate of 5% or less (almost no effect)), the “Herbicidal effect, B: Japanese bulrush” value [26] was 0 (Herbicidal rate of 5% or less (almost no effect)) and the “M (velvetleaf) herbicidal effect grade” value [27] was 3 (Herbicidal rate of 40% or more and less than 70%). The “M: velvetleaf, herbicidal effect grade” value [28] was 0 (Herbicidal rate of 5% or less (almost no effect)), the “L: windgrass, herbicidal effect grade” value [29] was 0 (Herbicidal rate of 5% or less (almost no effect)) and the “Herbicidal effect on D (Chinese sprangletop), foliage application” value [30] was 0 (Herbicidal rate of 5% or less (almost no effect)). For the same compound, the “L (windgrass) herbicidal effect grade” value [31] was 3 (Herbicidal rate of 40% or more and less than 70%) and the “G (green foxtail) herbicidal effect grade” value [32] was 3 (Herbicidal rate of 40% or more and less than 70%).

Reference: patent US20230085307A1, “PYRIDAZINONE COMPOUND AND HERBICIDE” (NISSAN CHEMICAL CORPORATION, priority 2019, published 2023)
